Where two headings read alike, the source gives them in different places.

Data set [1] addresses T1, AHR (Homo sapiens, UniProt P35869).
T1 sequence (P35869 11-848): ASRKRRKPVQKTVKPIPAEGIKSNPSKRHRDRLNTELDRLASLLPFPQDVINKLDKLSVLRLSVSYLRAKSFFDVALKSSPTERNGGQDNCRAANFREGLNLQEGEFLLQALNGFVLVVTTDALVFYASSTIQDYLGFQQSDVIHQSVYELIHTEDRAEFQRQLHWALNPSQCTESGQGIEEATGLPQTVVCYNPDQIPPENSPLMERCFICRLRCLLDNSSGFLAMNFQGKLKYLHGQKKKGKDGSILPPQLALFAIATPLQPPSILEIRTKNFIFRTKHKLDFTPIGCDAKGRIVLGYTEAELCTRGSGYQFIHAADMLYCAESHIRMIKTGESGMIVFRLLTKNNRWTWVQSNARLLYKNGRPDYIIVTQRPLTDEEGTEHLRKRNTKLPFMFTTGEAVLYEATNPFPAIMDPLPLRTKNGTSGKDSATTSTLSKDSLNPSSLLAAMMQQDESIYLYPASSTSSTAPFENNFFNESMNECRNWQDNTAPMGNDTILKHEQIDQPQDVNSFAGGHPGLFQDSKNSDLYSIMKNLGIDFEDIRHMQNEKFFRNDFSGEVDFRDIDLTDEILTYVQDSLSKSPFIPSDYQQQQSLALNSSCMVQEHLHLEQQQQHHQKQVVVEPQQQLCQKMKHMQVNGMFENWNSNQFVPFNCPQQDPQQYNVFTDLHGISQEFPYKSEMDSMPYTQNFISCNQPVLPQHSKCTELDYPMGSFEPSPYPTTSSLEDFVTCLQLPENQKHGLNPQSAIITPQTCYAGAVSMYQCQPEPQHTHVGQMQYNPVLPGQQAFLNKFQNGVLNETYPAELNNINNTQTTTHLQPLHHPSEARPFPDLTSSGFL
Nature of the data set: Inhibition of ligand-induced AHR activation and AHR-regulated gene expression by an AHR antagonist. It is filed as cell-based. Also on record: Malignant glioma cell lines as well as GIC express the AHR constitutively; endogenous in cells. How it is done:
TDO expression was analysed by immunohistochemistry in human tumors. Its relevance for Trp degradation was determined using genetic knockdown or overexpression of TDO. Trp and Kyn were measured in cell culture supernatants, human sera and xenograft tissue by HPLC. Mixed leukocyte reactions, chromium release, ELISpot and staining of immune cells in tumor tissues were used to assess the immune effects of TDO activity. Cell cycle analysis, matrigel and spheroid invasion assays, scratch assays, sphere formation assays and clonogenicity assays were employed to analyse the autocrine effects of TDO activity. All animal procedures followed the institutional laboratory animal research guidelines and were approved by the governmental authorities. Orthotopic implantation of human glioma cells with and without stable knockdown of TDO into CD1nu/nu mice, s.c. injection of these cells into NK-depleted or wildtype CD1nu/nu mice and s.c. injection of murine Tdo-proficient and Tdo-deficient GL261 cells into syngeneic C57BL/6N mice were performed to analyse the autocrine and paracrine effects of TDO activity in vivo. Microarray analysis of Kyn-treated human glioma cells was performed to identify signalling pathways activated by Kyn. Analysis of AHR translocation, DRE-luciferase assays and radioligand binding assays confirmed activation of the AHR by Kyn. […]

The target in data set [2] is T1, AHR. The experiment in a line: ethoxyresorufin-O-deethylase (EROD) assay, induction of AHR target gene CYP1A1. It is filed as cell-based. The text has this:
Such an inhibition may occur if the compound binds to an interaction domain of the AHR or its ligand binding domain and thereby inhibits the biological function of the AHR as specified elsewhere herein. Preferably, the inhibitor blocks the ligand binding domain for kynurenin, i.e. interacts with the ligand binding domain of the PAS-B domain or the ligand binding domain formed by Tyr310, Phe324, His326 and Arg352 (amino acid positions corresponding to human AHR). Alternatively, the compound may elicit an allosteric effect on the AHR polypeptide resulting in an inhibition of the biological function as well. An indirect inhibition can be elicited by a compound which reduces or prevents the transcription and/or translation of AHR polypetides and, thus, the amount of available AHR polypeptides in a cell. The AHR inhibitor shall at least reduce the AHR activity to a statistically significant extent. Of course, preferably, the inhibitor will reduce the AHR activity below the detectable limits. […] The activity of AHR can be detected by determining induction of the gene expression of its endogenous target gene CYP1A1 by an ethoxyresorufin-O-deethylase (EROD) assay.

For data set [3], the target named is T2, AHR (Mus musculus, UniProt P30561).
T2 construct: expressed in transfected cells; host or cells: Tao BpRc1c mouse hepatoma cells
T2 sequence (P30561 10-848): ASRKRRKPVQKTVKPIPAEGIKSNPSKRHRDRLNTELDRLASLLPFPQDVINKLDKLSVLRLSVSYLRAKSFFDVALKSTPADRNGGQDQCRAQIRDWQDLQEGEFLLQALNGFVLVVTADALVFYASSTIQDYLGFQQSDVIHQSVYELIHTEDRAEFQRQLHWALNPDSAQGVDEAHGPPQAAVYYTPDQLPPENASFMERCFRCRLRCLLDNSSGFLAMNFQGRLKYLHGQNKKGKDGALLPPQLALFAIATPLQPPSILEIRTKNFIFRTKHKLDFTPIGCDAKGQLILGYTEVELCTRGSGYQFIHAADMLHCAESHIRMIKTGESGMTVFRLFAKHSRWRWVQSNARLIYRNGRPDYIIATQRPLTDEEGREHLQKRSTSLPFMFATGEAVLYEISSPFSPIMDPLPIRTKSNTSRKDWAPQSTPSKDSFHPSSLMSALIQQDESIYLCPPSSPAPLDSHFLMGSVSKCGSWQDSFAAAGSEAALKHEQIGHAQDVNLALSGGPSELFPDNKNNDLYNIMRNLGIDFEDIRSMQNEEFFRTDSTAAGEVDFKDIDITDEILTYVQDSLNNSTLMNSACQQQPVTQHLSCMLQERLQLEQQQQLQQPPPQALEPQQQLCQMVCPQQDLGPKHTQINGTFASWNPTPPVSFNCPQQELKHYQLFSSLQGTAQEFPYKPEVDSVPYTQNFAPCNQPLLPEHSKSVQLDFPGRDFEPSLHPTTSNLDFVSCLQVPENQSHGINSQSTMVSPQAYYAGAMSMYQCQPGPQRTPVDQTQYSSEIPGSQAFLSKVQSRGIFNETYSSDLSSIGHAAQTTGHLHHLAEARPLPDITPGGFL
The experiment in a line: AHR nuclear translocation (GFP-tagged AHR, mouse hepatoma cells). Particulars: after 1 h; 50 μM Kyn. It is filed as cell-based. How it is done:
For detection of AHR translocation 7000 Tao BpRc1c cells with a GFP-tagged AHR per well were exposed to 50 μM Kyn or 50 μM Trp, fixed in 3.7% formaldehyde in PBS, permeabilised in 0.1% Triton X100, incubated with 1 μg/ml Hoechst 33342 (Invitrogen) and imaged on a BD Pathway™ Imager 855 in a non-confocal mode using a 20× U-Apo 340 objective (Olympus, NA 0.75). Further analysis of fluorescence intensity was performed using the Attovision software (BD Biosciences). In addition, the AHR protein content in the nuclear and the cytoplasmic fractions of LN-229 glioma cells was compared by immunoblotting.

Data set [4] concerns the target T3, AHR (Mus musculus, UniProt P30561).
T3 sequence (P30561 1-848): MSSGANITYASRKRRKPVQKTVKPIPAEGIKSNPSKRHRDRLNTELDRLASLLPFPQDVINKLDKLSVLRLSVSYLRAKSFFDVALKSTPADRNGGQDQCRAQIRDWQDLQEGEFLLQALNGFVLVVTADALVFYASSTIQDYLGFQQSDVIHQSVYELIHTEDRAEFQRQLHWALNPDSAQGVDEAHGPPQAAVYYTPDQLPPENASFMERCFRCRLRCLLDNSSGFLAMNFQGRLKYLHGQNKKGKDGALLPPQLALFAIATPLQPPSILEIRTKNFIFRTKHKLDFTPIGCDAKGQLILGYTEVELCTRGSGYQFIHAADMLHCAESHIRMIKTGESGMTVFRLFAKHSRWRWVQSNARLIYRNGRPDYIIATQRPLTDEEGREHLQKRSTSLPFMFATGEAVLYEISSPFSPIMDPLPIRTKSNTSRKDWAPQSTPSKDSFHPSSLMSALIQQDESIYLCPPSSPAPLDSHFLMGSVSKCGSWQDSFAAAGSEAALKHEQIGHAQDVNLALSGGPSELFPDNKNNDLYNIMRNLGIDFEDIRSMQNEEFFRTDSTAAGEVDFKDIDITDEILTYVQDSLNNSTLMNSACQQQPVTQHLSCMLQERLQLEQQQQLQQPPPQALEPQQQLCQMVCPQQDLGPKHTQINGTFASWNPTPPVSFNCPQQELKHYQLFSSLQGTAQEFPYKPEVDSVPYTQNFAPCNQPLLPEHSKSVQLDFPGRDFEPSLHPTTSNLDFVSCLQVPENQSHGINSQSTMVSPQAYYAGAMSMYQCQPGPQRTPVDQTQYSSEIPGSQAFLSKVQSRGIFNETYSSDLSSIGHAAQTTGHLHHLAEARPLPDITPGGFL
From the text: The data distribution is represented by box plots, showing the 25th and 75th percentile together with the median, whiskers represent the 10th and 90th percentile, respectively (P<0.001, one way ANOVA on ranks, followed by Dunns' method). d, AHR Western blots of two different nuclear and cytoplasmic fractions each of control (1,2), Kyn-treated (3,4) and TCDD-treated (5,6) human LN-229 glioma cells. e, Dioxinresponsive element (DRE) chemical activated luciferase gene expression in U87 glioma cells treated with indicated Kyn concentrations (n=2). f, Radioligand binding assay with indicated concentrations of L-3H-Kyn using mouse liver cytosol from Ahr-proficient and Ahr-deficient mice.
L-3H-Kyn with a specific activity of 11 Ci/mmol was obtained from Quotient Bioresearch (Radiochemicals) Ltd. (Cardiff, UK). The binding assays with L-3H-Kyn using mouse liver cytosol from Ahr-proficient and Ahr-deficient mice were performed. Specific binding was defined as the difference of radioactivity between Ahr-proficient and Ahr-deficient cytosol.

A further data set deals with AHR response genes. Nature of the data set: Microarray analysis of Kyn-treated U87 glioma cells. It is filed as cell-based, human. Conditions: U87, 100 μM Kyn, 8 h and 24 h. How it is done: U87 glioma cells were treated with 100 μM Kyn for 8 h or 24 h, after which the cells were harvested and RNA isolated using the RNAeasy-Kit (Qiagen). The RNA was subjected to microarray analyses as detailed in the Supplementary Methods. For each of the four treatments (8 h, 24 h, Kyn-treated, untreated) two arrays were hybridised and the mean log 2 ratios of gene expression in Kyn-treated vs. untreated samples were calculated. Further analyses of the data are detailed in the Supplementary Methods. For clinical samples microarray and clinical data were acquired from the REpository for Molecular BRAin Neoplasia DaTa (REMBRANDT) (Supplementary Methods). Survival analysis within the data set of untreated primary glioblastoma (n=362) of The Cancer Genome Atlas (TCGA) network was performed using the Kaplan-Meier-analysis module of the R2 microarray analysis and visualisation platform (http://r2.amc.nl).

The target in data set [5] is T1, AHR.
Method: Dual luciferase/renilla assays were performed as detailed in the Supplementary Methods. For analysis of DRE-driven reporter gene activity in response to various Trp metabolites, the pGL3-promotor expression plasmid and the control plasmid pRL-SV40, expressing renilla luciferase were used (Promega, Heidelberg, Germany).
Another data set relates to glioma cells. Nature of the data set: Motility, clonogenic survival and sphere formation of glioma cells. It is filed as cell-based, human. How it is done:
Tumor weight was calculated using the equation: tumor weight (g)=(length (cm)×width (cm)2)×0.5. e, IFN-γ-release of T cells of mice bearing subcutaneous Tdo-expressing tumors (black bar) in comparison to T cells of mice bearing Tdo-deficient tumors (white bar) after restimulation with glioma lysates measured by ELISpot (n=3). f, Lysis of GL261 murine glioma cells by spleen cells of mice with Tdo-expressing GL261 tumors in comparison to those with a subcutaneous Tdo-deficient GL261 tumors measured by chromium release (n=4). g, Quantification of the migrated distances of sh-c (open squares) and sh-TDO (solid circles) cells into a collagen matrix (n=3, P=0.004, 0.0005 and 0.01 for 24, 48 and 72 h, respectively). h, Clonogenic survival of sh-c (white bar) and sh-TDO (black bar) U87 cells (n=3). i, Matrigel boyden chamber assay of U87 glioma cells in the absence or presence of 70 μM Trp without or with 30 μM or 60 μM Kyn (n=3). j, Clonogenic survival of LN-18 glioma cells in the absence or presence of 70 μM Trp without or with 30 μM or 60 μM Kyn (n=3). k, Representative cranial MRIs, H&E and nestin stainings of CD1 nu/nu mice implanted with sh-c (upper panel) or sh-TDO (lower panel) U87 glioma cells. […]

The next data set has as its system T cells. The experiment in a line: T cell proliferation (mixed leukocyte reaction, TCR-stimulated T cells). It is filed as cell-based, human. How it is done:
Glioma cells were seeded in 96-well plates in RPMI 1640 containing 10% FBS, 100 U/ml penicillin and 100 μg/ml streptomycin. 24 h after seeding […] irradiated (30 Gy) PBMC as stimulators and 2×10^5 PBMC from unrelated donors as responders were added. Six-day MLR were performed and cultures were pulsed with [3H]-methylthymidine (PerkinElmer, Waltham, Mass., USA) for the last 18 h. Cells were harvested, and radionuclide uptake was measured by scintillation counting. Experiments were repeated with six unrelated PBMC donors.

On to `COc1ccc(-c2cc(=O)c3ccccc3o2)cc1OC` [3,4-DMF, 3,4-dimethoxylflavone], for which the “Activation of the AHR and upregulation of AHR-regulated gene expression in response to Kyn” value at AHR [1] (agonist Kyn) is “inhibited”. The “Activation of the AHR by Kyn, TCDD and 3-MC” value at AHR [1] (three ligands: Kyn, TCDD, 3-methylcholanthrene) is reported as “inhibited the activation of the AHR by all three ligands”.

Kynurenin: the figures for the EC50 on AHR [2] and at AHR [5] were 12.3 µM and 36.6 µM, respectively. On AHR [3], the “Translocation of the AHR into the nucleus” value is “led to translocation of the AHR into the nucleus”. For the same compound, the Kd – broadly, the concentration at which binding is half-saturated – at AHR [4] is around 4 µM. Besides, in the data set on AHR response genes, the “Induction of AHR response genes” value is “broad induction of AHR response genes”. For the same compound, in the data set with glioma cells (absence of Trp, 30 or 60 μM Kyn (FIG. 2i,j)), the “Motility and clonogenic survival of glioma cells” value was “restored motility and clonogenic survival”. For the same compound, in the data set on glioma cells (glioma-initiating cells), the “Sphere formation of GIC” value was “enhanced”. In addition, the “Proliferation of T cell receptor-stimulated CD4+ and CD8+ T cells” value in the data set on T cells is reported as “concentration-dependently inhibited”. In addition, in the data set on T cells (100 μM Kyn added to sh-TDO U87 cells (FIG. 2b)), the “Allogeneic T cell proliferation with TDO knockdown glioma cells” value is recorded as “prevented the restoration of T cell proliferation”.

The record behind these values is patent publication US9593062B2, “Means and methods for treating and/or preventing natural AHR ligand-dependent cancer” (priority 2011, dated 2017).
